From patent publication US20180153995A1, “USE OF ANTIMICROBIAL POLYMERS FOR RE-SENSITIZATION OF MICROORGANISMS UPON EMERGENCE OF RESISTANCE TO ANTI-MICROBIAL AGENTS” (Technion Research & Development Foundation Limited, priority 2008, published 2018)
Like-named read-outs stand apart in the source and are kept apart here.

How the values were obtained:
[1] = test system: MRSA 15903; experiment: microbe, parasite or virus in culture; type: cell-based, Staphylococcus aureus
Outline: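 Values are FIC indexes, summing each agent's MIC in combination divided by its MIC alone, for MRSA 15903. Interpretation: <0.5 clear re-sensitization, 0.5 to 4 marginal or none, >4 antagonistic.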

[2] = test system: S. aureus 43300; experiment: Antibiotic MIC by microdilution with or without sub-MIC polymer; type: cell-based, Staphylococcus aureus
Procedure: MICs were determined by microdilution susceptibility testing in 96-well plates (by Nunc) using inocula of 10^5 bacteria per ml. Cell populations were evaluated by optical density measurements at 620 nm and were calibrated against a set of standards. Hundred (100) μl of a bacterial suspension were added to 100 μl of culture medium (control) or to 100 μl of culture medium containing various polymer concentrations in 2-fold serial dilutions. Inhibition of proliferation was determined by optical density measurements at 620 nm after an incubation period of 24 hours at 37° C.
Table 8 below presents the MIC values of antibiotics in presence or absence of C12(5-ene)KKNC12KNH2 (SEQ ID NO: 2) at sub-MIC levels of the polymer, as measured for the S. aureus strains 43300 (ATCC), 15819 (clinical isolate), 15877 (clinical isolate) and 15852 (clinical isolate). MICs were determined by microdilution susceptibility testing in 96-well plates (Nunc) using inocula of 10^5 bacteria per ml. One hundred (100) μl of a bacterial suspension were added to 100 μl of culture medium (control) or to 100 μl of culture medium containing various antibiotic and C12(5-ene)KKNC12KNH2 (SEQ ID NO: 2) concentrations in 2-fold serial dilutions. Inhibition of proliferation was determined by optical density measurements at 620 nm after an incubation period of 24 hours at 37° C.
100 μl of a bacterial suspension were added to 100 μl of culture medium (control) or to 100 μl of culture medium containing various antibiotic and C14(9-ene)KKNC12KNH2 (SEQ ID NO: 5) concentrations in 2-fold serial dilutions. Inhibition of proliferation was determined by optical density measurements at 620 nm after an incubation period of 24 hours at 37° C.

[3] = test system: S. aureus 15819; experiment: as above; type: cell-based, Staphylococcus aureus; settings: S. aureus 15819
[4] = test system: E. coli 14384; experiment: as above; type: cell-based, Escherichia coli
Outline: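 Optical density at 620 nm, calibrated against standards, measured growth inhibition after 24 hours at 37° C. Inocula were 10^5 bacteria per ml, and antibiotic was serially diluted 2-fold with or without […].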

[5] = test system: E. coli 16327; experiment: microbe, parasite or virus in culture
[6] = +½ MIC (3.12 μM) C12(5-ene)KKNC12KNH2

CC1(C)S[C@@H]2[C@H](NC(=O)Cc3ccccc3)C(=O)N2[C@H]1C(=O)O [Penicillin G, penicillin G]
4 to 16 µg/mL: MIC, ½ + MIC OAK ([1]; MRSA 15903, with C12K(KNC10K)3NH2 (SEQ ID NO: 10) at ½ of its MIC)
512 µg/mL: Antibiotic MIC [4] | Antibiotic MIC ([4]; E. coli 14384, no polymer (None), Table 9)
1 µg/mL: MIC ([1]; MRSA 15903, +½ polymer MIC (3.1 μM) NC12(KNC12K)2NH2)
2 µg/mL: MIC ([1]; MRSA 15903, +⅓ polymer MIC (2.1 μM) NC12(KNC12K)2NH2) | Antibiotic MIC ([2]; +½ MIC (3.12 μM) C14(9-ene)KKNC12KNH2) | Antibiotic MIC ([3]; +½ MIC (3.12 μM) C12KKNC12KNH2) | Antibiotic MIC ([3]; +⅓ MIC (2.1 μM) C12K(KNC12K)3NH2)
8 µg/mL: MIC ([1]; MRSA 15903, +¼ polymer MIC (1.6 μM) NC12(KNC12K)2NH2) | Antibiotic MIC ([2]; no polymer (None), Table 11) | Antibiotic MIC ([2]; no polymer (None), Table 12) | Antibiotic MIC ([3]; +¼ MIC (1.6 μM) C12KKNC12KNH2) | Antibiotic MIC ([3]; +⅓ MIC (2.1 μM) C12(5-ene)KKNC12KNH2)
32 µg/mL: MIC ([1]; S. aureus CI-15903, +polymer (¼ MIC) C12(5-ene)KKNC12KNH2)
0.03 µg/mL: Antibiotic MIC [2, 6]
0.25 µg/mL: MIC ([1]; S. aureus CI-15903, +polymer (½ MIC) C12(5-ene)KKNC12KNH2)
4 µg/mL: MIC ([1]; S. aureus CI-15903, +polymer (⅓ MIC) C12(5-ene)KKNC12KNH2) | Antibiotic MIC ([2]; +¼ MIC (1.6 μM) C14(9-ene)KKNC12KNH2) | Antibiotic MIC ([2]; +⅓ MIC (2.1 μM) C14(9-ene)KKNC12KNH2) | Antibiotic MIC ([2]; no polymer (None), Table 8) | Antibiotic MIC ([2]; no polymer (None), Table 9) | Antibiotic MIC ([2]; no polymer (None), Table 10) | Antibiotic MIC ([3]; +¼ MIC (1.6 μM) C12K(KNC12K)3NH2) | Antibiotic MIC [3, 6] | Antibiotic MIC ([3]; +⅓ MIC (2.1 μM) C12KKNC12KNH2)
>512 µg/mL: Antibiotic MIC ([4]; E. coli 14384, +½ MIC C12K(NC8K)5NH2) | Antibiotic MIC, None ([4]; E. coli 14384, antibiotic alone (Table 15)) | Antibiotic MIC ([4]; E. coli 14384, no polymer (None), Table 14) | Antibiotic MIC in presence of C12K(NC8K)7NH2 (SEQ ID NO: 4), +¼ MIC ([4]; E. coli 14384, polymer at ¼ of its MIC) | Antibiotic MIC in presence of C12K(NC8K)7NH2 (SEQ ID NO: 4), +½ MIC ([4]; E. coli 14384, polymer at ½ of its MIC) | Antibiotic MIC in presence of C12K(NC8K)7NH2 (SEQ ID NO: 4), +⅓ MIC ([4]; E. coli 14384, polymer at ⅓ of its MIC) | Antibiotic MIC [5] | Antibiotic MIC ([5]; E. coli 16327, +¼ MIC (1.6 μM) C12K(KNC12K)2NH2) | Antibiotic MIC ([5]; E. coli 16327, +½ MIC (3.12 μM) C12K(KNC12K)2NH2) | Antibiotic MIC ([5]; E. coli 16327, +⅓ MIC (2.1 μM) C12K(KNC12K)2NH2) | Antibiotic MIC ([5]; E. coli 16327, no polymer (None), Table 9)
8 to 12 µg/mL: Antibiotic MIC ([3]; +¼ MIC (1.6 μM) C12(5-ene)KKNC12KNH2)
64 µg/mL: MIC ([1]; MRSA 15903, antibiotic alone) | MIC, Alone ([1]; MRSA 15903, antibiotic alone (Table 22)) | MIC, ¼ + MIC OAK ([1]; MRSA 15903, with C12K(KNC10K)3NH2 (SEQ ID NO: 10) at ¼ of its MIC) | MIC, ⅓ + MIC OAK ([1]; MRSA 15903, with C12K(KNC10K)3NH2 (SEQ ID NO: 10) at ⅓ of its MIC) | MIC ([1]; S. aureus CI-15903, alone)
0.5 µg/mL: Antibiotic MIC ([3]; +½ MIC (3.12 μM) C12K(KNC12K)3NH2)
16 µg/mL: Antibiotic MIC ([3]; no polymer (None), Table 8) | Antibiotic MIC ([3]; no polymer (None), Table 11) | Antibiotic MIC ([3]; no polymer (None), Table 13)
